# Experimental data as given in ChEMBL document CHEMBL1142484, “Design and synthesis of sulfoximine based inhibitors for HIV-1 protease” (Bioorg Med Chem Lett, 2008).
# Molecular target: Protease (Human immunodeficiency virus 1, UniProt Q9YQ12)
# Assay: Inhibition of HIV1 protease
# Protease, sequence (Q9YQ12 whole entry): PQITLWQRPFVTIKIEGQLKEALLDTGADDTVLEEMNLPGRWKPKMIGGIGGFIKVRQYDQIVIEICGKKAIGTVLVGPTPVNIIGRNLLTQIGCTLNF
row,IC50 [µM],Structure (SMILES)
1,0.0006,O=C(N[C@H]1c2ccccc2C[C@H]1O)[C@H](Cc1ccccc1)CC(O)C[C@@H](Cc1ccccc1)C(=O)N[C@H]1c2ccccc2C[C@H]1O
2,100,CC(C)(C)NC(=O)[C@H]1CN(Cc2cccnc2)CCN1C[S+](=N)([O-])C[C@H](Cc1ccccc1)C(=O)N[C@@H]1c2ccccc2C[C@@H]1O (stereo partly drawn)
3,100,"CC(C)(C)NC(=O)C1CN(Cc2cccnc2)CCN1C[S+]([O-])C[C@H](Cc1ccccc1)C(=O)NC1c2ccccc2CC1O (single isomer, unassigned)"
